# Structures can show the parent of a compound that is named as a salt. Where two headings read alike, the source gives them in different places.
# What was measured:
# [1] = system: K562 (myelogenous leukemia cell line); assay: MTT cytotoxicity assay, K562; assay type: cell-based, human; details: Homo sapiens, K562, 48 h, 48 h incubation; average (SD) of three experiments; read-out: IC50 K562
# Experimental: (§1) The cytotoxicity of new derivatives of dicarboximides was tested in HeLa (cervix carcinoma cell line), K562 (myelogenous leukemia cell line), MOLT-4 (Human T-Lymphoid Cell Line), and HUVEC (normal endothelial) cells. First, the viability of cells was determined after 48 h incubation with the screened compounds used at the concentration of 100 μM (data not shown). […] Cells exposed to 1% DMSO (as vehicle) served as the control with 100% survival.
# (§2) Human umbilical vein endothelial cells (Life Technologies, Carlsbad, CA, USA) were cultured (according to the manufacturer’s instructions) in Medium 200 containing low serum growth supplement; 1 × 10^4 cells were seeded on each well on a 96-well plate (Nunc, Roskilde, Denmark). The HeLa (human cervix carcinoma), K562, and MOLT-4 (leukemia) cells were cultured in RPMI 1640 medium supplemented with antibiotics and 10% fetal calf serum in a 5% CO2–95% air atmosphere; 7 × 10^3 cells were seeded on each well on a 96-well plate (Nunc). Twenty-four hours later, cells were exposed to the test compounds for additional 48 hours. Stock solutions of test compounds were freshly prepared in DMSO. The final concentrations of the compounds tested in the cell cultures were 2 × 10^−1, 1 × 10^−1, 5 × 10^−2, 1 × 10^−2, 1 × 10^−3, and 1 × 10^−4 mM. The concentration of DMSO in the cell culture medium was 1%. The values of IC50 (the concentration of test compound required to reduce the cell survival fraction to 50% of the control) were calculated from dose–response curves and used as a measure of cellular sensitivity to a given treatment. The cytotoxicity of all compounds was determined by the MTT [3-(4,5-dimethylthiazol-2-yl)-2,5-diphenyltetrazolium bromide; Sigma, St. Louis, MO, USA] assay. Briefly, after 24 or 48 h of incubation with drugs, the cells were treated with the MTT reagent, and incubation was continued for 2 h. MTT-formazan crystals were dissolved in 20% SDS and 50% DMF at pH 4.7, and absorbance was read at 570 and 650 nm on a microplate reader FLUOstar Omega (BMG Labtech, Offenburg, Germany). As a control (100% viability), we used cells grown in the presence of the vehicle (1% DMSO) only.
# [2] = system: MOLT-4 (Human T-Lymphoid Cell Line); assay: MTT cytotoxicity assay, MOLT-4; assay type: cell-based; details: read-out: IC50 MOLT-4
# Experimental: as §1, §2
# [3] = system: HeLa (human cervix carcinoma) cells; assay: MTT cytotoxicity assay, HeLa; assay type: cell-based; details: 48 h incubation, average (SD) of three experiments, read-out: IC50 HeLa
# Experimental: as §1, §2
# [4] = Lipophilicity (logkw) by reversed-phase chromatography (RP-HPLC); assay type: physicochemical; details: for logkw (Experimental): extrapolated to pure water; for logkw (Table S2): intercept of logk vs methanol fraction, n = 4
# Excerpt: The main goal of the synthetic part was the synthesis of new derivatives of dicarboximides with decreased lipophilicity in comparison to the lead compounds, i.e., Ia–Ie and II. To reduce the lipophilicity of the new dicarboximides, a hydroxyalkyl chain connected with an aliphatic amine was introduced to the imides (Scheme 1). At the same time, the imide scaffold in derivatives from group 2 and 3 was the same as in lead compounds Ia–Ie and II, respectively (Figure 1). The structure of the imide was changed in derivatives 1b–1g. The lipophilicity of new derivatives was calculated using the Osiris Property Explorer program. For some compounds, lipophilicity was determined experimentally by a reversed-phase chromatography (detailed description is given in Materials and Methods and in the Supplementary Data, Table S2). Table 1 summarizes the calculated (clogP) and experimental (logkw) parameters of the lipophilicity of new derivatives.
# The reversed-phase high-performance liquid chromatography (RP-HPLC) analysis was performed on a Merck–Hitachi LaChrom Elite System (Merck, Darmstadt, Germany) with diode array detector L-2455, thermostat L-2300, pump L-2130, and autosampler L-2200 and with the Waters XTerra MS RP-18 (3.5 μm, 150 × 4.6 mm) chromatographic column (Waters, Milford, MA, USA) as the stationary phase. The mobile phase consisted of methanol, water, and 0.1% (v/v) formic acid and was degassed by the use of the built-in membrane degasser. The methanol gradient grade for HPLC was purchased from Merck (Merck, Darmstadt, Germany) and formic acid from Polish Reagents (Polish Reagents, Gliwice, Poland); double-distilled water was used. Then, 5 μL of methanolic solutions (0.1%; m/v) of selected samples were applied to the chromatographic column by the use of an autosampler Hitachi L-2200 (LaChrom Elite, Hitachi-Merck, Darmstadt, Germany). The analysis was performed with the flow rate of 0.7 mL min^−1 in isocratic mode using various concentrations of organic modifier (methanol) in binary polar mobile phases; percentages of methanol in water were 45–70% (%, v/v) and changed by 5% per step. Chromatograms were detected at 254 nm and the temperature of the column was 25 °C. All experiments were repeated in triplicate, and the final results were taken to be the arithmetic means. Dead time was measured by the use of uracil (Calbiochem. Merck, Darmstadt, Germany). Statistical and regression analyses were performed using Statistica (ver. 13.3 for Windows). The chromatographic lipophilicity parameters ( logkW ) for selected samples were obtained by the extrapolation of the retention parameter logk to pure water, according to Equation (1):(1) logk=logkw−S·ϕ; where logkW is the value of the retention factor of a substance in pure water, S is the slope of the regression curve, and ϕ is the concentration of the organic modifier. The values of logk were calculated based on the raw HPLC data using the formula (2):(2) logk=logtR−t0/t0; where tR is the retention time and t0 is the dead retention time (determined for uracil).
# The chromatographic lipophilicity parameters (logkௐ ) for selected samples were ob‐ tained by the extrapolation of the retention parame te r logk to pure water, according to […]
# where logkௐ is the value of the retention factor of a substance in pure water, S is the slope of the regression curve, and φ is the concentration of the organic modifier. The values of logk were ca lcula ted based on the raw HPLC data using the formula: […]
# logk ൌ log ሺ௧ೃ ି ௧బ௧బ ሻ (2) where tோ is the retention time and t଴ is the dead retention time (determined for ura‐ cil). The goodness of fit of the equation (1) to the experimental data was classified accord‐ ing to Jaffe (Jaffe, H. H. A Reexamination of the Hammet Equation. Chem. Rev. 1953, 53, In our RP‐HPLC experiments, the goodness of fit of the equation to the experi‐ mental data are excellent in most ca ses (r > 0.99). The F statistic val ues are, in all cases, […]
# [5] = system: HUVEC (normal endothelial) cells; assay: MTT cytotoxicity assay, HUVEC; assay type: cell-based; details: Homo sapiens, read-out: IC50 HUVEC
# Experimental: as §1, §2
# [6] = MOLT-4, 48 h incubation, average (SD) of three experiments
# [7] = 48 h incubation, average (SD) of three experiments
Compound,melting point [°C],IC50 [1] [µM],"IC50 [2, 6] [µM]",IC50 [3] [µM],"IC50 [5, 7] [µM]",further results
"CCCCN(CCCC)CC(O)CN1C(=O)C2C(C1=O)C1(C)C(=O)C2(C)C(c2ccccc2)=C1c1ccccc1 (stereo not shown) (as salt: HCl) [1e, 4-[3-(dibutylamino)-2-hydroxypropyl]-1,7-dimethyl-8,9-diphenyl-4-azatricyclo [5.2.1.0^2,6]dec-8-ene-3,5,10-trione]",192 to 196,–,–,–,–,–
"CC12C(=O)C(C)(C(c3ccccc3)=C1c1ccccc1)C1C(=O)N(CC(O)CN3CCCCC3)C(=O)C12 (stereo not shown) (as salt: HCl) [1f, 4-[2-hydroxy-3-(piperidin-1-yl)propyl]-1,7-dimethyl-8,9-diphenyl-4-azatricyclo[5.2.1.0^2,6]dec-8-ene-3,5,10-trione]",170 to 171,–,–,–,–,–
"CC12C(=O)C(C)(C(c3ccccc3)=C1c1ccccc1)C1C(=O)N(CCN3CCCCC3)C(=O)C12 (stereo not shown) (as salt: HCl) [1i, 4-[2-(piperidin-1-yl)ethy]-1,7-dimethyl-8,9-diphenyl-4-azatricyclo[5.2.1.0^2,6]dec-8-ene-3,5,10-trione]",214 to 216,–,–,–,–,–
"CC12C(=O)C(C)(C(c3ccccc3)=C1c1ccccc1)C1C(=O)N(CCN3CCOCC3)C(=O)C12 (stereo not shown) (as salt: HCl) [1j, 4-[2-(morpholin-4-yl)ethy]-1,7-dimethyl-8,9-diphenyl-4-azatricyclo[5.2.1.0^2,6]dec-8-ene-3,5,10-trione]",227 to 228,–,–,–,–,–
"CCCCN(CCCC)CC(O)CN1C(=O)C2C(C1=O)C1(CC)C(=O)C2(CC)C(c2ccccc2)=C1c1ccccc1 (stereo not shown) (as salt: HCl) [2e, 4-[3-(dibutylamino)-2-hydroxypropyl]-1,7-diethyl-8,9-diphenyl-4-azatricyclo[5.2.1.0^2,6]dec-8-ene-3,5,10-trione]",92 to 110,–,–,–,–,–
"CCC12C(=O)C(CC)(C(c3ccccc3)=C1c1ccccc1)C1C(=O)N(CC(O)CN3CCCCC3)C(=O)C12 (stereo not shown) (as salt: HCl) [2f, 4-[2-hydroxy-3-(piperidin-1-yl)propyl]-1,7-diethyl-8,9-diphenyl-4-azatricyclo[5.2.1.0^2,6]dec-8-ene-3,5,10-trione]",190 to 195,–,–,–,–,–
"CCCCN(CCCC)CC(O)CN1C(=O)C2C(C1=O)C1(c3ccccc3)CC2(c2ccccc2)C(c2ccccc2)=C1c1ccccc1 (stereo not shown) (as salt: HCl) [3e, 4-[3-(dibutylamino)-2-hydroxypropyl]-1,7,8,9-tetraphenyl-4-azatricyclo[5.2.1.0^2,6]dec-8-ene-3,5-dione]",237 to 238,–,–,–,–,–
"O=C1C2C(C(=O)N1CC(O)CN1CCCCC1)C1(c3ccccc3)CC2(c2ccccc2)C(c2ccccc2)=C1c1ccccc1 (stereo not shown) (as salt: HCl) [3f, 4-[2-hydroxy-3-(piperidin-1-yl)propyl]-1,7,8,9-tetraphenyl-4-azatricyclo[5.2.1.0^2,6]dec-8-ene-3,5-dione]",268 to 270,–,–,–,–,–
"CCN(CC)CC(O)CN1C(=O)C2C(C1=O)C1(C)C(=O)C2(C)C(c2ccccc2)=C1c1ccccc1 (stereo not shown) [1d, 4-[3-(diethylamino)-2-hydroxypropyl]-1,7-dimethyl-8,9-diphenyl-4-azatricyclo[5.2.1.0^2,6]dec-8-ene-3,5,10-trione]",–,39,37,59,22,logkw (Experimental) [4]: 4.87; logkw (Table S2) [4]: 4.8734
"CC12C(=O)C(C)(C(c3ccccc3)=C1c1ccccc1)C1C(=O)N(CCCl)C(=O)C12 (stereo not shown) [1h, 4-(2-chloroethyl)-1,7-dimethyl-8,9-diphenyl-4-azatricyclo[5.2.1.0^2,6]dec-8-ene-3,5,10-trione]",190 to 191,–,–,–,–,"IC50 ([2]; MOLT-4, 48 h): 20 µM; IC50 ([5]; 48 h): 64 µM"
"CCNCC(O)CN1C(=O)C2C(C1=O)C1(CC)C(=O)C2(CC)C(c2ccccc2)=C1c1ccccc1 (stereo not shown) [2b, 4-[3-(ethylamino)-2-hydroxypropyl]-1,7-diethyl-8,9-diphenyl-4-azatricyclo [5.2.1.0^2,6]dec-8-ene-3,5,10-trione]",–,8,14,26,3.4,logkw (Experimental) [4]: 5.08; logkw (Table S2) [4]: 5.0846
"CCC12C(=O)C(CC)(C(c3ccccc3)=C1c1ccccc1)C1C(=O)N(CC(O)CN3CCOCC3)C(=O)C12 (stereo not shown) [2g, 4-[-2-hydroxy-3-(morpholin-4-yl)propyl]-1,7-diethyl-8,9-diphenyl-4-azatricyclo[5.2.1.0^2,6]dec-8-ene-3,5,10-trione]",–,20,18,23,17,logkw (Experimental) [4]: 4.98; logkw (Table S2) [4]: 4.9763
"O=C1C2C(C(=O)N1CC(O)CN1CCOCC1)C1(c3ccccc3)CC2(c2ccccc2)C(c2ccccc2)=C1c1ccccc1 (stereo not shown) [3g, 4-[-2-hydroxy-3-(morpholin-4-yl)propyl]-1,7,8,9-tetraphenyl-4-azatricyclo[5.2.1.0^2,6]dec-8-ene-3,5-dione]",–,31,5.2,120,17,logkw (Experimental) [4]: 6.28; logkw (Table S2) [4]: 6.2759
"CC12C(=O)C(C)(C(c3ccccc3)=C1c1ccccc1)C1C(=O)N(CCO)C(=O)C12 (stereo not shown) [compound 4, 4-(2-hydroxyethyl)-1,7-dimethyl-8,9-diphenyl-4-azatricyclo[5.2.1.0^2,6]dec-8-ene-3,5,10-trione]",186 to 187,105,71,61,56,–
